In ChEMBL document CHEMBL5338791, “Discovery of Novel 1,3-Diphenylpyrazine Derivatives as Potent S-Phase Kinase-Associated Protein 2 (Skp2) Inhibitors for the Treatment of Cancer” (J Med Chem, 2023):
≈ marks a conversion by molar mass, not a printed value. Blank lines part the entries; values can stand above or below the compound they belong to. Calls of active or inactive are those of the source. No cut-off for these calls is given here.

Tests used:
[1] = molecular target: T1, S-phase kinase-associated protein 2/Cyclin-dependent kinases regulatory subunit 1/S-phase kinase-associated protein 1 (Homo sapiens, UniProt Q13309); assay: Inhibition of GST-tagged Skp2/Skp1 (unknown origin)/His6-tagged Cks1 (unknown origin) interaction by AlphaScreen assay; assay type: protein assay
[2] = test system: MGC-803; assay: Induction of cell cycle arrest in human MGC-803 cells assessed as accumulation of cells at G1 phase at 20 uM incubated for 48 hrs by flow cytometry (reference value: 54.46 %); assay type: functional
[3] = test system: PC-3; assay: Induction of apoptosis in human PC-3 cells assessed as necrotic cells at 20 uM incubated for 48 hrs by annexin V-FITC/PI staining based flow cytometry (reference value: 0.14 %); assay type: functional
[4] = test system: PC-3; assay: Induction of apoptosis in human PC-3 cells assessed as early apoptotic cells at 20 uM incubated for 48 hrs by annexin V-FITC/PI staining based flow cytometry (reference value: 0.85 %); assay type: functional
[5] = test system: MGC-803; assay: Induction of cell cycle arrest in human MGC-803 cells assessed as accumulation of cells at S phase at 20 uM incubated for 48 hrs by flow cytometry (reference value: 22.72 %); assay type: functional
[6] = test system: PC-3; assay: Induction of apoptosis in human PC-3 cells assessed as late apoptotic cells at 20 uM incubated for 48 hrs by annexin V-FITC/PI staining based flow cytometry (reference value: 0.45 %); assay type: functional
[7] = test system: MGC-803; assay: Induction of apoptosis in human MGC-803 cells assessed as necrotic cells at 20 uM incubated for 48 hrs by annexin V-FITC/PI staining based flow cytometry (reference value: 0.89 %); assay type: functional
[8] = molecular target: T1, S-phase kinase-associated protein 2/Cyclin-dependent kinases regulatory subunit 1/S-phase kinase-associated protein 1; assay: Inhibition of GST-tagged Skp2/Skp1 (unknown origin)/His6-tagged Cks1 (unknown origin) interaction preincubated with Skp2/Skp1 for 10 mins followed by Cks1 addition measured after 20 mins by HTRF assay; assay type: protein assay
[9] = test system: PC-3; assay: Induction of cell cycle arrest in human PC-3 cells assessed as accumulation of cells at S phase at 20 uM incubated for 48 hrs by flow cytometry (reference value: 22.44 %); assay type: functional
[10] = test system: PC-3; assay: Upregulation of p21 level in human PC-3 cells at 20 uM incubated for 48 hrs by Western blot analysis; assay type: functional, cell-based
[11] = test system: PC-3; assay: Induction of cell cycle arrest in human PC-3 cells assessed as accumulation of cells at G1 phase at 20 uM incubated for 48 hrs by flow cytometry (reference value: 57.39 %); assay type: functional
[12] = test system: PC-3; assay: Induction of apoptosis in human PC-3 cells assessed as viable cells at 20 uM incubated for 48 hrs by annexin V-FITC/PI staining based flow cytometry (reference value: 98.6 %); assay type: functional; settings: read-out: Activity
[13] = test system: MGC-803; assay: Induction of apoptosis in human MGC-803 cells assessed as early apoptotic cells at 20 uM incubated for 48 hrs by annexin V-FITC/PI staining based flow cytometry (reference value: 0.21 %); assay type: functional
[14] = test system: MGC-803; assay: Downregulation of Skp2 level in human MGC-803 cells at 20 uM incubated for 48 hrs by Western blot analysis; assay type: functional, cell-based
[15] = test system: PC-3; assay: Downregulation of Skp2 level in human PC-3 cells at 20 uM incubated for 48 hrs by Western blot analysis; assay type: functional, cell-based
[16] = test system: MGC-803; assay: Upregulation of p27 level in human MGC-803 cells at 20 uM incubated for 48 hrs by Western blot analysis; assay type: functional, cell-based
[17] = test system: MGC-803; assay: Induction of cell cycle arrest in human MGC-803 cells assessed as accumulation of cells at G2 phase at 20 uM incubated for 48 hrs by flow cytometry (reference value: 21.35 %); assay type: functional
[18] = test system: PC-3; assay: Induction of cell cycle arrest in human PC-3 cells assessed as accumulation of cells at G2 phase at 20 uM incubated for 48 hrs by flow cytometry (reference value: 22.59 %); assay type: functional
[19] = test system: PC-3; assay: Upregulation of p27 level in human PC-3 cells at 20 uM incubated for 48 hrs by Western blot analysis; assay type: functional, cell-based
[20] = test system: MGC-803; assay: Upregulation of p21 level in human MGC-803 cells at 20 uM incubated for 48 hrs by Western blot analysis; assay type: functional, cell-based
[21] = test system: MGC-803; assay: Induction of apoptosis in human MGC-803 cells assessed as late apoptotic cells at 20 uM incubated for 48 hrs by annexin V-FITC/PI staining based flow cytometry (reference value: 0.95 %); assay type: functional
[22] = test system: MGC-803; assay: Induction of apoptosis in human MGC-803 cells assessed as viable cells at 20 uM incubated for 48 hrs by annexin V-FITC/PI staining based flow cytometry (reference value: 98 %); assay type: functional; settings: read-out: Activity
[23] = Toxicity in mouse assessed as decrease in platelet level at 5 mg/kg; assay type: organism-based; settings: in vivo
[24] = Toxicity in mouse assessed as increase in blood total bilirubin level at 5 mg/kg; assay type: organism-based; settings: in vivo
[25] = Toxicity in mouse assessed as increase in blood BUN level at 5 mg/kg; assay type: organism-based; settings: in vivo
[26] = Toxicity in mouse assessed as increase in blood GGT level at 5 mg/kg; assay type: organism-based; settings: in vivo
[27] = Toxicity in mouse assessed as increase in blood creatinine level at 5 mg/kg; assay type: organism-based; settings: in vivo
[28] = Toxicity in mouse assessed as decrease in total protein level at 5 mg/kg; assay type: organism-based; settings: in vivo
[29] = Toxicity in mouse assessed as increase in blood glutamic pyruvic transaminase level at 5 mg/kg; assay type: organism-based; settings: in vivo
[30] = test system: PC-3; assay: Antitumor activity against human PC-3 cells xenografted in NOD-SCID mouse model assessed as tumor growth inhibition at 5 mg/kg, ip administered once every 3 days for 21 days relative to control; assay type: functional; settings: PC-3, 504 h, time 21 day, read-out: TGI
[31] = test system: MGC-803; assay: Antitumor activity against human MGC-803 cells assessed as cell growth inhibition incubated for 72 hrs by MTT assay; assay type: functional, cell-based; settings: MGC-803, 72 h
[32] = Antitumor activity against human EC1 cells assessed as cell growth inhibition incubated for 72 hrs by MTT assay; assay type: functional, cell-based; settings: EC1, 72 h
[33] = test system: NCI-H1299; assay: Antitumor activity against human NCI-H1299 cells assessed as cell growth inhibition incubated for 72 hrs by MTT assay; assay type: functional, cell-based; settings: NCI-H1299, 72 h
[34] = Solubility in cell culture medium by HPLC analysis; assay type: physicochemical
[35] = test system: MCF7; assay: Antitumor activity against human MCF7 cells assessed as cell growth inhibition incubated for 72 hrs by MTT assay; assay type: functional, cell-based; settings: MCF7, 72 h
[36] = test system: PC-3; assay: Antitumor activity against human PC-3 cells assessed as cell growth inhibition incubated for 72 hrs by MTT assay; assay type: functional, cell-based; settings: PC-3, 72 h

T1 sequence (P61024 whole entry): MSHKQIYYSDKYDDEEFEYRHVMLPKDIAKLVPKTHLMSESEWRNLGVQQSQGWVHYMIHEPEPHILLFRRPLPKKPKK
T1 sequence (Q13309 whole entry): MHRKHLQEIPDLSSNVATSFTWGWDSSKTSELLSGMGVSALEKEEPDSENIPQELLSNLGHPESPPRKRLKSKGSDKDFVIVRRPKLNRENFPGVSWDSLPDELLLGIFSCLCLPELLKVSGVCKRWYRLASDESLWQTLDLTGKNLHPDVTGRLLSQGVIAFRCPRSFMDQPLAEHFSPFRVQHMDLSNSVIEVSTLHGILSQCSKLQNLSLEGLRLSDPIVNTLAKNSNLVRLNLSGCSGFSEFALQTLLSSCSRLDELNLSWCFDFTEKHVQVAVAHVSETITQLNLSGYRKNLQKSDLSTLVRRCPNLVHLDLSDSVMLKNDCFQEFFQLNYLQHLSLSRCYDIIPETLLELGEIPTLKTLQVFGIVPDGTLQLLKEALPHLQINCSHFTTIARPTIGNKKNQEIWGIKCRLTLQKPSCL
T1 sequence (P63208 whole entry, further chain): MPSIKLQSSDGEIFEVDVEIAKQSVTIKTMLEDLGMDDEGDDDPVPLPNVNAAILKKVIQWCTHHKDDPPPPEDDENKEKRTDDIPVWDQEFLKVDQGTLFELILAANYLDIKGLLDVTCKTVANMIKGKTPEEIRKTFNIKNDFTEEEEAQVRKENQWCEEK

IC50 [1]: 36.6 µM
Structure (SMILES): O=C(OC12CC3CC(CC(C3)C1)C2)c1ccc(NCc2cc(O)ccc2O)cc1

IC50 [8]: 42.8 µM
Structure (SMILES): CC(C)N(CCCCOCC(=O)NS(C)(=O)=O)c1cnc(-c2ccccc2)c(-c2ccccc2)n1 [SELEXIPAG]
Activity [2]: 49.75% | Activity [3]: 2.22% | Activity [4]: 0.57% | Activity [5]: 27.3% | Activity [6]: 4.54% | Activity [7]: 0.44% | Activity [9]: 34.85% | Activity [10]: Active | Activity [11]: 44.88% | viability at 20 µM [12]: 92.7% | Activity [13]: 1.58% | Activity [14]: Active | Activity [15]: Active | Activity [16]: Active | Activity [17]: 21.27% | Activity [18]: 18.81% | Activity [19]: Active | Activity [20]: Active | Activity [21]: 1.21% | viability at 20 µM [22]: 96.8%

Structure (SMILES): CC(=O)O[C@H]1C(=O)[C@@]2(C)[C@H]([C@H](OC(=O)c3ccccc3)[C@]3(O)C[C@H](OC(=O)[C@H](O)[C@@H](NC(=O)c4ccccc4)c4ccccc4)C(C)=C1C3(C)C)[C@]1(OC(C)=O)CO[C@@H]1C[C@@H]2O [PACLITAXEL]
Activity [23]: Toxic | Activity [24]: Toxic | Activity [25]: Toxic | Activity [26]: Toxic | Activity [27]: Toxic | Activity [28]: Toxic | Activity [29]: Toxic | inhibition in vivo at 5 mg/kg [30]: 75.8%

IC50 [31]: 46.9 µM | IC50 [8]: 1.7 µM | IC50 [33]: > 100 µM | solubility [34]: 0.13 µg/mL (≈ 0.312 µM) | IC50 [35]: 42.1 µM | IC50 [36]: 96.5 µM
Structure (SMILES): CC(C)(C)OC(=O)N1CCN(c2cnc(-c3ccccc3)c(-c3ccccc3)n2)CC1
IC50 [32]: 52.3 µM
